# Measurements as given in patent US11174268B2, “Benzenesulfonamide compouds and their use as therapeutic agents” (Xenon Pharmaceuticals Inc., priority 2016, dated 2021).
# Counter-ions that a name gives are not always drawn. Like-named read-outs stand apart in the source and are kept apart here.
# Assays:
# NaV1.6 = NaV1.6 (Homo sapiens (Human), UniProt Q9UQD0); test: Sodium Influx Assay (Flux), NaV1.6; assay type: cell-based; conditions: Trex HEK293 cells, ANG2 dye, inactivated state;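 note: Tetracycline-induced cells, compounds applied for one hour at room temperature with modulators holding channels open, IC50 from percent inhibition of sodium influx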
# NaV1.5 = NaV1.5 (Homo sapiens (Human), UniProt Q14524); test: Sodium Influx Assay (Flux), NaV1.5
# NaV1.1 = NaV1.1 (Homo sapiens (Human), UniProt P35498); test: Sodium Influx Assay (Flux), NaV1.1; assay type: cell-based; conditions: Trex HEK293 cells, ANG2 dye, inactivated state;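 note: channels co-expressed with human β1 subunit and held open by modulators, cells exposed to compounds for one hour at room temperature, IC50 from percent inhibition of influx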
# [1] = read-out: Flux NaV1.5 IC50, Trex HEK293 cells, ANG2 dye, inactivated state
# NaV1.5, sequence (Q14524 other isoform, or with tags, fused parts or gaps): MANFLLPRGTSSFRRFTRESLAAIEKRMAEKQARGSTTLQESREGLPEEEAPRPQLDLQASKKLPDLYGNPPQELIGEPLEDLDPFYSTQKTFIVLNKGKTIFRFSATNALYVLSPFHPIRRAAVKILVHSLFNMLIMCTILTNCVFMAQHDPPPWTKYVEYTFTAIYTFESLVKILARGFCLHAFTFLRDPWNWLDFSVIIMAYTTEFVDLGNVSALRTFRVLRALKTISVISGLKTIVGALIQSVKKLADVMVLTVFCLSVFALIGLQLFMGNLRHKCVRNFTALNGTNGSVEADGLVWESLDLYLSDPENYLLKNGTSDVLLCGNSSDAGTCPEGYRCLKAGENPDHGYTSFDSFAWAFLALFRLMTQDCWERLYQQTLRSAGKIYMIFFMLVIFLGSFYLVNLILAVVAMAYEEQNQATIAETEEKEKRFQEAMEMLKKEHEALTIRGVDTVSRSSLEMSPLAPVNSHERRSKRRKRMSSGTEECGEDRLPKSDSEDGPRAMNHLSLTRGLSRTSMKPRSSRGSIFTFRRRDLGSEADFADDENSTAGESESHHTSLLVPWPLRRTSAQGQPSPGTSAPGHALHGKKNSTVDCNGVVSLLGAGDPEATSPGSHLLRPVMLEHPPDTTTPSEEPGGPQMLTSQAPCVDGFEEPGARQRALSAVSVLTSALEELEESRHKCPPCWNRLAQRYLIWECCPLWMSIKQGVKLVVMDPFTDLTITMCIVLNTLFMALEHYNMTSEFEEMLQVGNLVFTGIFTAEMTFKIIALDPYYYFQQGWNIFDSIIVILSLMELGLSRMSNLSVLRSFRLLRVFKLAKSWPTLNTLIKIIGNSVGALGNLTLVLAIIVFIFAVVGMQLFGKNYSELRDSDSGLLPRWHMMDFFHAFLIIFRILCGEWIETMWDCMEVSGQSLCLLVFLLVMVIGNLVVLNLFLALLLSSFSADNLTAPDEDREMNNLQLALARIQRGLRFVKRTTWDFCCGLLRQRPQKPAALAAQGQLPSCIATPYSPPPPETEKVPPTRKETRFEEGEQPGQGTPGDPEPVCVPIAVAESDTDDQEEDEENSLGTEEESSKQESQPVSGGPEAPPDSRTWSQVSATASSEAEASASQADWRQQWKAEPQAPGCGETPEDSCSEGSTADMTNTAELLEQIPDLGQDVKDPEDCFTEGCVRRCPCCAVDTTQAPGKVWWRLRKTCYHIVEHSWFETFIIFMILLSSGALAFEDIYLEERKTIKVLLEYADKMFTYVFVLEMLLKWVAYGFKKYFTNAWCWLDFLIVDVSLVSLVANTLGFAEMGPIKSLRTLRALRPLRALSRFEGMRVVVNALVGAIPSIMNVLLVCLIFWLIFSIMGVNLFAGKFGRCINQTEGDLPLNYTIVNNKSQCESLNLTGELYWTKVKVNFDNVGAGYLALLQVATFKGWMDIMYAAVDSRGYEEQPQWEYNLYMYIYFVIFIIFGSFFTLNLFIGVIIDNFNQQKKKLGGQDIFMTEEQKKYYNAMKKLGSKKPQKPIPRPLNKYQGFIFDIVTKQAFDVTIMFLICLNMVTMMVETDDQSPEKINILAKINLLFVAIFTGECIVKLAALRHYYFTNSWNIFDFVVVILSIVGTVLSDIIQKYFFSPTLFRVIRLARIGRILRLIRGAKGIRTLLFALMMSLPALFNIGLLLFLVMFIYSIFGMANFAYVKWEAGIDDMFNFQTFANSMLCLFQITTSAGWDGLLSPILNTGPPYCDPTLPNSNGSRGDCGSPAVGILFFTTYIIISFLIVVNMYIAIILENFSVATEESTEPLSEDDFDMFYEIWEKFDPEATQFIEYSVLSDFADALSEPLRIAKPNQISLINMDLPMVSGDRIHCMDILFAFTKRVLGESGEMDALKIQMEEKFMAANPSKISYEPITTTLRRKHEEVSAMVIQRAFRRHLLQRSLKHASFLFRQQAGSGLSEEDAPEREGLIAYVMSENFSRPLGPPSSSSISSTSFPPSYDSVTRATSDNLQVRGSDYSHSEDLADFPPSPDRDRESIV
SMILES,IC50 (NaV1.6),IC50 (NaV1.1),IC50 (NaV1.5),IC50 (NaV1.5; [1])
"CC1(C)CN(Cc2cccc(F)c2CNc2cc(F)c(S(=O)(=O)Nc3cscn3)c(F)c2)C1 [Example 170, 4-((2-((3,3-dimethylazetidin-1-yl)methyl)-6-fluorobenzyl)amino)-2,6-difluoro-N-(thiazol-4-yl)benzenesulfonamide]",0.176 µM,24.7 µM,15.2 µM,
"O=S(=O)(Nc1cscn1)c1c(F)cc(NCc2c(F)cccc2CN2CCC23CCC3)cc1F [Example 173, 4-((2-((1-azaspiro[3.3]heptan-1-yl)methyl)-6-fluorobenzyl)amino)-2,6-difluoro-N-(thiazol-4-yl)benzenesulfonamide formate]",0.05 µM,7.22 µM,,19.5 µM
"O=S(=O)(Nc1cscn1)c1c(F)cc(NCc2c(F)cccc2CN2CC3CC3C2)cc1F (stereo not drawn) [Example 174, 4-((2-((3-azabicyclo[3.1.0]hexan-3-yl)methyl)-6-fluorobenzyl)amino)-2,6-difluoro-N-(thiazol-4-yl)benzenesulfonamide]",0.035 µM,30 µM,,30 µM
"O=S(=O)(Nc1cscn1)c1c(F)cc(NCc2c(F)cccc2CNC2CCC2)cc1F [Example 177, 4-((2-((cyclobutylamino)methyl)-6-fluorobenzyl)amino)-2,6-difluoro-N-(thiazol-4-yl)benzenesulfonamide formate]",0.046 µM,5.4 µM,,22.3 µM
"CCC(C)(C)N(C)Cc1cccc(F)c1CNc1cc(F)c(S(=O)(=O)Nc2cscn2)c(F)c1 [Example 184, 2,6-difluoro-4-((2-fluoro-6-((methyl(tert-pentyl)amino)methyl)benzyl)amino)-N-(thiazol-4-yl)benzenesulfonamide formate]",0.332 µM,≥ 30 µM,≥ 30 µM,
"O=S(=O)(Nc1cscn1)c1c(F)cc(NCc2c(F)cccc2CN2CC3(CC3)C2)cc1F [Example 186, 4-((2-((5-azaspiro[2.3]hexan-5-yl)methyl)-6-fluorobenzyl)amino)-2,6-difluoro-N-(thiazol-4-yl)benzenesulfonamide formate]",0.019 µM,15.5 µM,,9.12 µM
"O=S(=O)(Nc1cscn1)c1c(F)cc(NCc2cccc(F)c2CN2CCC2)cc1F [Example 196, 4-((2-(azetidin-1-ylmethyl)-3-fluorobenzyl)amino)-2,6-difluoro-N-(thiazol-4-yl)benzenesulfonamide 2,2,2-trifluoroacetate]",0.187 µM,25.9 µM,,30 µM
"O=S(=O)(Nc1cscn1)c1c(F)cc(NCc2cccc(F)c2CN2CCC2)c(Cl)c1F [Example 197, 4-((2-(azetidin-1-ylmethyl)-3-fluorobenzyl)amino)-3-chloro-2,6-difluoro-N-(thiazol-4-yl)benzenesulfonamide 2,2,2-trifluoroacetate]",0.023 µM,12 µM,,27.6 µM
"O=S(=O)(Nc1cccc(F)n1)c1cc(Cl)c(NCc2ccccc2CN2CCC2)cc1F [Example 200, 4-((2-(azetidin-1-ylmethyl)benzyl)amino)-5-chloro-2-fluoro-N-(6-fluoropyridin-2-yl)benzenesulfonamide]",0.496 µM,4.43 µM,,15.4 µM
"CC(C)N(C)Cc1cccc(F)c1CNc1cc(F)c(S(=O)(=O)Nc2ccon2)c(F)c1 [Example 201, 2,6-difluoro-4-((2-fluoro-6-((isopropyl(methyl)amino)methyl)benzyl)amino)-N-(isoxazol-3-yl)benzenesulfonamide 2,2,2-trifluoroacetate]",0.561 µM,30 µM,,30 µM
"O=S(=O)(Nc1cscn1)c1c(F)cc(NCc2c(CN3CCC3)cccc2C2CC2)cc1F [Example 211, 4-((2-(azetidin-1-ylmethyl)-6-cyclopropylbenzyl)amino)-2,6-difluoro-N-(thiazol-4-yl)benzenesulfonamide 2,2,2-trifluoroacetate]",1.76 µM,3.38 µM,,19.2 µM
"COC(C)(C)C1CN(Cc2ccccc2CNc2cc(F)c(S(=O)(=O)Nc3cscn3)c(F)c2)C1 [Example 214, 2,6-difluoro-4-((2-((3-(2-methoxypropan-2-yl)azetidin-1-yl)methyl)benzyl)amino)-N-(thiazol-4-yl)benzenesulfonamide 2,2,2-trifluoroacetate]",0.326 µM,13.4 µM,,16.2 µM

# Continued by falling IC50 (NaV1.6), values first:
IC50 (NaV1.6),IC50 (NaV1.1),SMILES,IC50 (NaV1.5),IC50 (NaV1.5; [1])
7.49 µM,8.85 µM,"O=S(=O)(Nc1cscn1)c1cc(Cl)c(NCc2cc(F)c(F)cc2CN2CCC2)cc1F [Example 193, 4-((2-(azetidin-1-ylmethyl)-4,5-difluorobenzyl)amino)-5-chloro-2-fluoro-N-(thiazol-4-yl)benzenesulfonamide formate]",,26.7 µM
2.96 µM,10.6 µM,"CN(Cc1cccc(F)c1CNc1cc(F)c(S(=O)(=O)Nc2cscn2)c(F)c1)C1COC1 [Example 181, 2,6-difluoro-4-((2-fluoro-6-((methyl(oxetan-3-yl)amino)methyl)benzyl)amino)-N-(thiazol-4-yl)benzenesulfonamide formate]",,30 µM
0.688 µM,27.2 µM,"O=S(=O)(Nc1cscn1)c1c(F)cc(NCc2cc(CN3CCC3)ccc2F)cc1F [Example 195, 4-((5-(azetidin-1-ylmethyl)-2-fluorobenzyl)amino)-2,6-difluoro-N-(thiazol-4-yl)benzenesulfonamide formate]",,30 µM
0.68 µM,5.75 µM,"O=S(=O)(Nc1cscn1)c1c(F)cc(NCc2c(F)cccc2CN2CC(O)(C(F)(F)F)C2)cc1F [Example 176, 2,6-difluoro-4-((2-fluoro-6-((3-hydroxy-3-(trifluoromethyl)azetidin-1-yl)methyl)benzyl)amino)-N-(thiazol-4-yl)benzenesulfonamide formate]",,16.9 µM
0.593 µM,9.89 µM,"C[C@H](Nc1cc(F)c(S(=O)(=O)Nc2ccncn2)c(F)c1)c1cc(F)ccc1F [Example 208, (S)-4-((1-(2,5-difluorophenyl)ethyl)amino)-2,6-difluoro-N-(pyrimidin-4-yl)benzenesulfonamide 2,2,2-trifluoroacetate]",,30 µM
0.534 µM,30 µM,"CN(Cc1ccccc1CNc1cc(F)c(S(=O)(=O)Nc2cscn2)c(F)c1)C(C)(C)C [Example 202, 4-((2-((tert-butyl(methyl)amino)methyl)benzyl)amino)-2,6-difluoro-N-(thiazol-4-yl)benzenesulfonamide 2,2,2-trifluoroacetate]",,30 µM
0.522 µM,30 µM,"CN(Cc1cccc(F)c1CNc1cc(F)c(S(=O)(=O)Nc2ccsn2)c(F)c1)C(C)(C)C [Example 189, 4-((2-((tert-butyl(methyl)amino)methyl)-6-fluorobenzyl)amino)-2,6-difluoro-N-(isothiazol-3-yl)benzenesulfonamide formate]",,30 µM
0.416 µM,3.75 µM,"CCc1cccc(CN2CCC2)c1CNc1cc(F)c(S(=O)(=O)Nc2cscn2)c(F)c1 [Example 210, 4-((2-(azetidin-1-ylmethyl)-6-ethylbenzyl)amino)-2,6-difluoro-N-(thiazol-4-yl)benzenesulfonamide 2,2,2-trifluoroacetate]",,26.8 µM
0.342 µM,10.7 µM,"CC(C)CN(C)Cc1cccc(F)c1CNc1cc(F)c(S(=O)(=O)Nc2cscn2)c(F)c1 [Example 175, 2,6-difluoro-4-((2-fluoro-6-((isobutyl(methyl)amino)methyl)benzyl)amino)-N-(thiazol-4-yl)benzenesulfonamide]",,14.5 µM
0.265 µM,13.4 µM,"CC(C)(C)NCc1cccc(F)c1CNc1cc(F)c(S(=O)(=O)Nc2cscn2)c(F)c1 [Example 178, 4-((2-((tert-butylamino)methyl)-6-fluorobenzyl)amino)-2,6-difluoro-N-(thiazol-4-yl)benzenesulfonamide formate]",,30 µM
0.225 µM,26.6 µM,"CN(Cc1cccc(F)c1CNc1ccc(S(=O)(=O)Nc2cscn2)c(F)c1F)C(C)(C)C [Example 203, 4-((2-((tert-butyl(methyl)amino)methyl)-6-fluorobenzyl)amino)-2,3-difluoro-N-(thiazol-4-yl)benzenesulfonamide 2,2,2-trifluoroacetate]",,28.3 µM
0.213 µM,4.08 µM,"CC1(C)CCN1Cc1cccc(Cl)c1CNc1cc(F)c(S(=O)(=O)Nc2cscn2)c(F)c1 [Example 199, 4-((2-chloro-6-((2,2-dimethylazetidin-1-yl)methyl)benzyl)amino)-2,6-difluoro-N-(thiazol-4-yl)benzenesulfonamide formate]",,30 µM
0.166 µM,22.1 µM,"CC1(F)CN(Cc2cccc(F)c2CNc2cc(F)c(S(=O)(=O)Nc3cscn3)c(F)c2)C1 [Example 180, 2,6-difluoro-4-((2-fluoro-6-((3-fluoro-3-methylazetidin-1-yl)methyl)benzyl)amino)-N-(thiazol-4-yl)benzenesulfonamide formate]",,24.2 µM
0.08 µM,4.6 µM,"CN(Cc1cccc(F)c1CNc1cc(F)c(S(=O)(=O)Nc2cscn2)c(F)c1)C1CCC1 [Example 179, 4-((2-((cyclobutyl(methyl)amino)methyl)-6-fluorobenzyl)amino)-2,6-difluoro-N-(thiazol-4-yl)benzenesulfonamide formate]",,6.42 µM
0.036 µM,30 µM,"CCN(CC)Cc1cccc(F)c1CNc1cc(F)c(S(=O)(=O)Nc2cscn2)c(F)c1 [Example 183, 4-((2-((diethylamino)methyl)-6-fluorobenzyl)amino)-2,6-difluoro-N-(thiazol-4-yl)benzenesulfonamide formate]",,28 µM
